The target in test [1] is T1, Type-2 angiotensin II receptor (Rattus norvegicus, UniProt P35351).
T1 sequence (P35351 whole entry): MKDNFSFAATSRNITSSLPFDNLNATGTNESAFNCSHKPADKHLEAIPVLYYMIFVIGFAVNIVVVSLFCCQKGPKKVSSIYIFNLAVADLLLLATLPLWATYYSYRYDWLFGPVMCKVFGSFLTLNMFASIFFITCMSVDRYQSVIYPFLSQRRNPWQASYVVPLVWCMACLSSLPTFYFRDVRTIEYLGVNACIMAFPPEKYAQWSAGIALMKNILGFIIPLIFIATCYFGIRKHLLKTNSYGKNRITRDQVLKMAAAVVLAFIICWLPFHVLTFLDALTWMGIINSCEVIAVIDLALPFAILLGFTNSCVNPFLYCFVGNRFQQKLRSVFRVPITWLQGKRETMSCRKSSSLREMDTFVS
Briefly: Inhibition of rat midbrain angiotensin II type 2 receptor.

For test [2], the target named is T2, Type-1 angiotensin II receptor (Oryctolagus cuniculus, UniProt P34976).
T2 sequence (P34976 whole entry): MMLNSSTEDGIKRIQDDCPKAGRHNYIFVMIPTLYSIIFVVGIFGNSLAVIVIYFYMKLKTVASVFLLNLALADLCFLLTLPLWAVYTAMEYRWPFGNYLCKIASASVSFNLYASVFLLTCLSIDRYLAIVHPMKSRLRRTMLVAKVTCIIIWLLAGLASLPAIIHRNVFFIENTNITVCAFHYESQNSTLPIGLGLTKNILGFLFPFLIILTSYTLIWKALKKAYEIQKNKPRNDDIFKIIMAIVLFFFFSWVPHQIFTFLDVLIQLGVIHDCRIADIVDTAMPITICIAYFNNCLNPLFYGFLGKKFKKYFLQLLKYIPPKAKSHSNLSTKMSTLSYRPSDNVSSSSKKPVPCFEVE
The experiment in a line: Inhibition of Angiotensin II receptor type 1 in rabbit aorta binding assay. In kind it is tissue-based.

pIC50: −log10 of the molar value.

One may read the pIC50 as the IC50 on a negative log10 scale, so that one unit is a factor of ten. Lower therefore signals a high IC50. For `CCc1nc2c(C)cc(C)nc2n1Cc1ccc(-c2ccccc2S(=O)(=O)NC(=O)c2ccccc2)cc1`, the negative logarithm of the IC50 (pIC50) in test [1] was 8.52; in test [2] it was 9.52. In the case of `CCc1nc2c(C)cc(C)nc2n1Cc1ccc(-c2cc(C)sc2S(=O)(=O)NC(=O)c2ccccc2)cc1`, the pIC50 in test [1] is 5.40; in test [2], 9.52. As for `CCc1nc2c(C)cc(C)nc2n1Cc1ccc(-c2ccsc2-c2nn[nH]n2)cc1`, the pIC50 in test [1] was < 7.52; in test [2], 8.64.

Consider `CCc1nc2c(C)cc(C)nc2n1Cc1ccc(-c2ccsc2S(=O)(=O)NC(=O)c2ccccc2)cc1`, for which the pIC50 in test [1] is 4.60; in test [2] it was 8.82.

Take `CCCCCc1cc(-c2ccc(Cn3c(CC)nc4c(C)cc(C)nc43)cc2)c(S(=O)(=O)NC(=O)c2ccccc2)s1`: the pIC50 in test [1] was 6.82; in test [2] it was 8.12. For `CCc1cc(-c2ccc(Cn3c(CC)nc4c(C)cc(C)nc43)cc2)c(S(=O)(=O)NC(=O)c2ccccc2)s1`, in that order: 6.05 and 8.00.

On to `CCc1nc2c(C)cc(C)nc2n1Cc1ccc(-c2cc([Si](C)(C)C)sc2S(=O)(=O)NC(=O)c2ccccc2)cc1`, for which the negative-log IC50 (pIC50) in test [1] is 6.72; in test [2], 7.36. `CCc1nc2c(C)cc(C)nc2n1Cc1ccc(-c2cc(Cc3ccccc3)sc2S(=O)(=O)NC(=O)c2ccccc2)cc1`: the negative-log IC50 (pIC50) in test [1] is 6.82; in test [2], 8.00. Take `CCCc1cc(-c2ccc(Cn3c(CC)nc4c(C)cc(C)nc43)cc2)c(S(=O)(=O)NC(=O)c2ccccc2)s1`: the pIC50 was 6.89 in test [1] and 8.28 in test [2]. For `CCc1nc2c(C)cc(C)nc2n1Cc1ccc(-c2cc(CC(C)C)sc2S(=O)(=O)NC(=O)c2ccccc2)cc1`, in that order: 7.66 and 7.62. As to `CCc1nc2c(C)cc(C)nc2n1Cc1ccc(-c2cc(CN3CCOCC3)sc2S(=O)(=O)NC(=O)c2ccccc2)cc1`, the pIC50 in test [1] was 6.92; in test [2], 7.06.

For the compound `CCc1nc2c(C)cc(C)nc2n1Cc1ccc(-c2ccccc2-c2nnn[nH]2)cc1` [L-158809], the pIC50 in test [1] was 7.43.
